Drawing on US12466800B2, “N-((1,2,3,5,6,7-hexahydro-S-indacen-4-yl)carbamoyl)-4, 5, 6, 7-tetrahydrobenzofuran-2-sulfonamide derivatives and related compounds as NLPR3 modulators for the treatment of multiple sclerosis (MS)” (Zomagen Biosciences Ltd, priority 2019, dated 2025), this text covers IC50 for 21 compounds.

The assay has as its system IL-1b. The experiment in a line: Mouse BMDM IL-1b Assay. The settings on record: Macrophage; mouse bone marrow derived macrophages (C57BL6); 200 ng/mL LPS 3 h, compound 30 min, 5 mM ATP 45 min; IL-1b ELISA of supernatant. It is filed as cell-based. The gist of the method: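 C57BL6 bone marrow macrophages, differentiated 7 days with 20 ng/mL MCSF, were primed with 200 ng/mL LPS for 3 h at 37° C, given compound for 30 min, then 5 mM ATP for 45 min. Supernatant IL-1b was measured by ELISA against standards; IC50 fitted by Levenberg-Marquardt.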
For orientation: ELISA stands for enzyme-linked immunosorbent assay.
In the case of `CC1(O)CCCCc2oc(S(=O)(=O)NC(=O)Nc3c4c(c(F)c5c3CCC5)CCC4)cc21` (stereo not drawn) [Compound 106, N-((8-fluoro-1,2,3,5,6,7-hexahydro-s-indacen-4-yl)carbamoyl)-4-hydroxy-4-methyl-5,6,7,8-tetrahydro-4H-cyclohepta[b]furan-2-sulfonamide], the IC50 is below 100 nM.

Consider `CC1(O)CCCCc2oc(S(=O)(=O)NC(=O)Nc3c4c(c(Cl)c5c3CCC5)CCC4)cc21` (stereo not drawn) [Compound 107, N-((8-chloro-1,2,3,5,6,7-hexahydro-s-indacen-4-yl)carbamoyl)-4-hydroxy-4-methyl-5,6,7,8-tetrahydro-4H-cyclohepta[b]furan-2-sulfonamide], for which the IC50 was below 100 nM.

`CC1(O)CCCCc2oc(S(=O)(=O)NC(=O)Nc3c4c(c(Br)c5c3CCC5)CCC4)cc21` (stereo not drawn) [Compound 108, N-((8-bromo-1,2,3,5,6,7-hexahydro-s-indacen-4-yl)carbamoyl)-4-hydroxy-4-methyl-5,6,7,8-tetrahydro-4H-cyclohepta[b]furan-2-sulfonamide] gave an IC50 below 100 nM.

The compound `CC(C)c1cccc(C(C)C)c1NC(=O)NS(=O)(=O)c1cc2c(o1)CCCCC2(C)O` (stereo not drawn) [Compound 109, N-((2,6-diisopropylphenyl)carbamoyl)-4-hydroxy-4-methyl-5,6,7,8-tetrahydro-4H-cyclohepta[b]furan-2-sulfonamide] had an IC50 of 100 to 1000 nM.

For the compound `CC(C)c1ccc(F)c(C(C)C)c1NC(=O)NS(=O)(=O)c1cc2c(o1)CCCCC2(C)O` (stereo not drawn) [Compound 110, N-((3-fluoro-2,6-diisopropylphenyl)carbamoyl)-4-hydroxy-4-methyl-5,6,7,8-tetrahydro-4H-cyclohepta[b]furan-2-sulfonamide], the IC50 lay in the range of 100 to 1000 nM.

For `CC(C)c1ccc(Cl)c(C(C)C)c1NC(=O)NS(=O)(=O)c1cc2c(o1)CCCCC2(C)O` (stereo not drawn) [Compound 111, N-((3-chloro-2,6-diisopropylphenyl)carbamoyl)-4-hydroxy-4-methyl-5,6,7,8-tetrahydro-4H-cyclohepta[b]furan-2-sulfonamide], the IC50 was 100 to 1000 nM.

In turn, `CN1CCc2oc(S(=O)(=O)NC(=O)Nc3c4c(cc5c3CCC5)CCC4)cc2C1=O` [Compound 112, N-((1,2,3,5,6,7-hexahydro-s-indacen-4-yl)carbamoyl)-5-methyl-4-oxo-4,5,6,7-tetrahydrofuro[3,2-c]pyridine-2-sulfonamide] gave an IC50 of 100 to 1000 nM.

For `CN1CCc2sc(S(=O)(=O)NC(=O)Nc3c4c(cc5c3CCC5)CCC4)cc2C1` [Compound 113, N-((1,2,3,5,6,7-hexahydro-s-indacen-4-yl)carbamoyl)-5-methyl-4,5,6,7-tetrahydrothieno[3,2-c]pyridine-2-sulfonamide], the IC50 was below 100 nM.

Turning to `CN1CCc2sc(S(=O)(=O)NC(=O)Nc3c4c(cc5c3CCC5)CCC4)cc2C1=O` [Compound 114, N-((1,2,3,5,6,7-hexahydro-s-indacen-4-yl)carbamoyl)-5-methyl-4-oxo-4,5,6,7-tetrahydrothieno[3,2-c]pyridine-2-sulfonamide], the IC50 was in the range of 100 to 1000 nM.

The compound `CN1CCc2oc(S(=O)(=O)NC(=O)Nc3c4c(cc5c3CCC5)CCC4)cc2C1` [Compound 115, N-((1,2,3,5,6,7-hexahydro-s-indacen-4-yl)carbamoyl)-5-methyl-4,5,6,7-tetrahydrofuro[3,2-c]pyridine-2-sulfonamide] came in with an IC50 below 100 nM.

`O=C(Nc1c2c(c(F)c3c1CCC3)CCC2)NS(=O)(=O)c1cc2c(o1)CCCCC2O` (stereo not drawn) [Compound 116, N-((8-fluoro-1,2,3,5,6,7-hexahydro-s-indacen-4-yl)carbamoyl)-4-hydroxy-5,6,7,8-tetrahydro-4H-cyclohepta[b]furan-2-sulfonamide] displayed a concentration for half-maximal inhibition (IC50) below 100 nM.

For `O=C(Nc1c2c(c(Cl)c3c1CCC3)CCC2)NS(=O)(=O)c1cc2c(o1)CCCCC2O` (stereo not drawn) [Compound 117, N-((8-chloro-1,2,3,5,6,7-hexahydro-s-indacen-4-yl)carbamoyl)-4-hydroxy-5,6,7,8-tetrahydro-4H-cyclohepta[b]furan-2-sulfonamide], the IC50 was below 100 nM.

For `O=C(Nc1c2c(c(Br)c3c1CCC3)CCC2)NS(=O)(=O)c1cc2c(o1)CCCCC2O` (stereo not drawn) [Compound 118, N-((8-bromo-1,2,3,5,6,7-hexahydro-s-indacen-4-yl)carbamoyl)-4-hydroxy-5,6,7,8-tetrahydro-4H-cyclohepta[b]furan-2-sulfonamide], the IC50 was below 100 nM.

The compound `CC(C)c1ccc(F)c(C(C)C)c1NC(=O)NS(=O)(=O)c1cc2c(o1)CCCCC2O` (stereo not drawn) [Compound 119, N-((3-fluoro-2,6-diisopropylphenyl)carbamoyl)-4-hydroxy-5,6,7,8-tetrahydro-4H-cyclohepta[b]furan-2-sulfonamide] gave a concentration for half-maximal inhibition (IC50) of 100 to 1000 nM.

As to `CC(C)c1ccc(Cl)c(C(C)C)c1NC(=O)NS(=O)(=O)c1cc2c(o1)CCCCC2O` (stereo not drawn) [Compound 120, N-((3-chloro-2,6-diisopropylphenyl)carbamoyl)-4-hydroxy-5,6,7,8-tetrahydro-4H-cyclohepta[b]furan-2-sulfonamide], the IC50 was 100 to 1000 nM.

Consider `CC(C)c1cc(F)cc(C(C)C)c1NC(=O)NS(=O)(=O)c1cc2c(o1)CCCCC2(C)O` (stereo not drawn) [Compound 121, N-((4-fluoro-2,6-diisopropylphenyl)carbamoyl)-4-hydroxy-4-methyl-5,6,7,8-tetrahydro-4H-cyclohepta[b]furan-2-sulfonamide], for which the IC50 fell in the range of 100 to 1000 nM.

For `CC(C)c1cc(Cl)cc(C(C)C)c1NC(=O)NS(=O)(=O)c1cc2c(o1)CCCCC2(C)O` (stereo not drawn) [Compound 122, N-((4-chloro-2,6-diisopropylphenyl)carbamoyl)-4-hydroxy-4-methyl-5,6,7,8-tetrahydro-4H-cyclohepta[b]furan-2-sulfonamide], the IC50 was below 100 nM.

`CC1(O)CCCc2sc(S(=O)(=O)NC(=O)Nc3c4c(cc5c3CCC5)CCC4)cc21` (stereo not drawn) [Compound 123, N-((1,2,3,5,6,7-hexahydro-s-indacen-4-yl)carbamoyl)-4-hydroxy-4-methyl-4,5,6,7-tetrahydrobenzo[b]thiophene-2-sulfonamide] showed an IC50 below 100 nM.

With `O=C(Nc1c2c(cc3c1CCC3)CCC2)NS(=O)(=O)c1cc2c(s1)CCCC2O` (stereo not drawn) [Compound 124, N-((1,2,3,5,6,7-hexahydro-s-indacen-4-yl)carbamoyl)-4-hydroxy-4,5,6,7-tetrahydrobenzo[b]thiophene-2-sulfonamide], the IC50 is below 100 nM.

With `O=C(Nc1c2c(cc3c1CCC3)CCC2)NS(=O)(=O)c1cc2c(s1)CCC/C2=N/O` [Compound 125, (Z)-N-((1,2,3,5,6,7-hexahydro-s-indacen-4-yl)carbamoyl)-4-(hydroxyimino)-4,5,6,7-tetrahydrobenzo[b]thiophene-2-sulfonamide], the IC50 was below 100 nM.

`O=C(O)CCC1(O)CCCc2oc(S(=O)(=O)NC(=O)Nc3c4c(cc5c3CCC5)CCC4)cc21` (stereo not drawn) [Compound 126, 3-(2-(N-((1,2,3,5,6,7-hexahydro-s-indacen-4-yl)carbamoyl)sulfamoyl)-4-hydroxy-4,5,6,7-tetrahydrobenzofuran-4-yl)propanoic acid] displayed an IC50 of 100 to 1000 nM.

For orientation: IC50 means the concentration at which inhibition is half-maximal. Read a high IC50 as weaker potency.
